# Laboratory results reported in ChEMBL document CHEMBL4196062, “Trypanothione reductase inhibition and anti-leishmanial activity of all-hydrocarbon stapled α-helical peptides with improved proteolytic stability” (Eur J Med Chem, 2018).
# Calls of active or inactive are those of the source. The rule behind the calls is not given here. Positions of bridges follow the written chain, without caps; N, C: chain ends. Non-standard residues stand in square brackets, D forms with d. Residues, ends and D or L forms follow the SMILES beside them. *: point of attachment. X1 = O=C(O)c1ccc(NC(=S)*)cc1-c1c2ccc(=O)cc-2oc2cc(O)ccc12; R5 = C=CCCC[C@@](C)(N)C(=O)O; S5 = C=CCCC[C@](C)(N)C(=O)O; Nle = CCCC[C@H](N)C(=O)O; AEEA = NCCOCCOCC(=O)O
# How the values were obtained:
# Leishmania infantum [1] = test: Antileishmanial activity against Leishmania infantum MCAN/ES/89/IPZ229/1/89 axenic amastigotes infected in human THP1 cells after 24 hrs by propidium iodide staining based fluorescence microscopic analysis; format: functional, organism-based; details: MCAN/ES/89/IPZ229/1/89, THP-1, 24 h
# THP-1 = test: Cytotoxicity against human THP1 cells assessed as reduction in cell viability after 24 hrs by propidium iodide staining based fluorescence microscopic analysis; details: THP-1, 24 h
# Leishmania infantum [2] = test: Antileishmanial activity against Leishmania infantum MCAN/ES/89/IPZ229/1/89 promastigotes after 24 hrs by propidium iodide staining based fluorescence microscopic analysis; format: functional, organism-based; details: MCAN/ES/89/IPZ229/1/89, 24 h
# Proteinase K [3] = target: T1, Proteinase K (Engyodontium album, UniProt P06873); test: Drug metabolism assessed as Tritirachium album proteinase K-mediated compound degradation by measuring half life at 100 uM measured up to 360 mins by HPLC method; format: ADME; details: parengyodontium album
# Trypanothione reductase [4] = target: T2, Trypanothione reductase (Leishmania infantum, UniProt A4HSF7); test: Inhibition of dimerization of HIS/FLAG tagged Leishmania infantum trypanothione reductase incubated for 16 hrs by ELISA
# Trypanothione reductase [5] = target: T2, Trypanothione reductase; test: Inhibition of recombinant Leishmania infantum trypanothione reductase using T[S]2 as substrate preincubated for 5 mins followed by substrate and NADPH addition measured for 1 hr
# Leishmania infantum [6] = test: Antileishmanial activity against Leishmania infantum MCAN/ES/89/IPZ229/1/89 promastigotes at 25 uM after 24 hrs by propidium iodide staining based fluorescence microscopic analysis; format: functional, organism-based
# Leishmania infantum [7] = test: Antileishmanial activity against Leishmania infantum MCAN/ES/89/IPZ229/1/89 axenic amastigotes infected in human THP1 cells at 25 uM after 24 hrs by propidium iodide staining based fluorescence microscopic analysis; format: functional, organism-based
# Proteinase K [8] = target: T1, Proteinase K; test: Drug metabolism assessed as Tritirachium album proteinase K-mediated compound degradation by measuring half life at 100 uM measured up to 480 mins by HPLC method; format: ADME; details: parengyodontium album
# [9] = target: Trypanothione reductase (Leishmania infantum) (UniProt A4HSF7); test: Inhibition of dimerization of HIS/FLAG tagged Leishmania infantum trypanothione reductase assessed as dimer levels at 18.75 uM incubated for 16 hrs by ELISA; set-up: scale not given: the % may be the effect or the level left
# [10] = target: Trypanothione reductase (Leishmania infantum) (UniProt A4HSF7); test: Inhibition of dimerization of HIS/FLAG tagged Leishmania infantum trypanothione reductase assessed as dimer levels at 9.375 uM incubated for 16 hrs by ELISA; set-up: scale not given: the % may be the effect or the level left
# [11] = target: Trypanothione reductase (Leishmania infantum) (UniProt A4HSF7); test: Inhibition of dimerization of HIS/FLAG tagged Leishmania infantum trypanothione reductase assessed as dimer levels at 37.5 uM incubated for 16 hrs by ELISA; set-up: scale not given: the % may be the effect or the level left
# [12] = target: T3, Glutathione reductase, mitochondrial (Homo sapiens) (UniProt P00390); test: Activation of recombinant human glutathione reductase using GSSG as substrate preincubated for 5 mins followed by substrate and NADPH addition
# T3 sequence (whole entry): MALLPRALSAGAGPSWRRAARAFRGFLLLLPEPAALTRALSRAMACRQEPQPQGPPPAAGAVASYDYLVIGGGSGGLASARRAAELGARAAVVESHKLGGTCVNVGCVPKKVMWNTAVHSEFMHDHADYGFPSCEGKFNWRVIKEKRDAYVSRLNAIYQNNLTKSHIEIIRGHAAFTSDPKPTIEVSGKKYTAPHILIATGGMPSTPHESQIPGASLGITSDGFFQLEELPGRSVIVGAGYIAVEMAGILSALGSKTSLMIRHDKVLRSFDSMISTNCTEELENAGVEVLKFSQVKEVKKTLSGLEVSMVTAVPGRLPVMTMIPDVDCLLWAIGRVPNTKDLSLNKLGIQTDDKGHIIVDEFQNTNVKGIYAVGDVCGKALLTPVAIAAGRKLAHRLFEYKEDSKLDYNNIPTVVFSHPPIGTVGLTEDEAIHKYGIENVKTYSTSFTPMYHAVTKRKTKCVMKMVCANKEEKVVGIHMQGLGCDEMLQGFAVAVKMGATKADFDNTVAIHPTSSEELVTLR
# [13] = target: Trypanothione reductase (Leishmania infantum) (UniProt A4HSF7); test: Inhibition of dimerization of HIS/FLAG tagged Leishmania infantum trypanothione reductase assessed as dimer levels at 75 uM incubated for 16 hrs by ELISA; set-up: scale not given: the % may be the effect or the level left
# T2 sequence (A4HSF7 whole entry): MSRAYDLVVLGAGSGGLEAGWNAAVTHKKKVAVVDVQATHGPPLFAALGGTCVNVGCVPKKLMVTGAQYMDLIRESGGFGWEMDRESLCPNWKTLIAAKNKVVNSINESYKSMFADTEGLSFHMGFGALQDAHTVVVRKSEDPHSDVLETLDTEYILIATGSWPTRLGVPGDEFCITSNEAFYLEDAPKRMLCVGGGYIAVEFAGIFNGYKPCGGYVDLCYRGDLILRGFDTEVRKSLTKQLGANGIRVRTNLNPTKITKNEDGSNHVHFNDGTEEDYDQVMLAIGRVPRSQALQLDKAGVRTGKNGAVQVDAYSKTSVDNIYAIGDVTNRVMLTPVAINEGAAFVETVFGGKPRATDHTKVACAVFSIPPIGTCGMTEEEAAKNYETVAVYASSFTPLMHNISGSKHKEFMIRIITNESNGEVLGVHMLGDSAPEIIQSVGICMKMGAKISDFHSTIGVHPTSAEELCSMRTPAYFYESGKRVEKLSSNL
# Sequence of Trypanothione reductase (Leishmania infantum) (A4HSF7 as listed by the source): as the sequence (A4HSF7 whole entry) above
# T1 sequence (P06873 whole entry): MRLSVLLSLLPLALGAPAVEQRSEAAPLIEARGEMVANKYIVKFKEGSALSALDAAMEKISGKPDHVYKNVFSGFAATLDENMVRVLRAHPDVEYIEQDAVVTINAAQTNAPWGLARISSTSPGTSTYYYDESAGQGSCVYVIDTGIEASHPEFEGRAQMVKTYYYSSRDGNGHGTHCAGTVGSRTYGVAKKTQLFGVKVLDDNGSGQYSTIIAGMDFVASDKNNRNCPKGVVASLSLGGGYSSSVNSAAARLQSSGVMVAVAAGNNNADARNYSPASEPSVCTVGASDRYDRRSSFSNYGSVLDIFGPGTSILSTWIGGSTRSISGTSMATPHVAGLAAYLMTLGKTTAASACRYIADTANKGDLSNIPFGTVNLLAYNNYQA
Compound,IC50 (Trypanothione reductase [5]),Activity (Leishmania infantum [6]),Activity (Leishmania infantum [7]),Activity [9],Activity [10],Activity [11],Activity [13],also measured
CC[C@H](C)[C@H](NC(=O)[C@]1(C)CCCC=CCCC[C@](C)(NC(=O)[C@H](CCCCN)NC(=O)[C@@H]2CCCN2C(=O)[C@H](CCCNC(=N)N)NC(=O)[C@H](CCCNC(=N)N)NC(=O)[C@H](CCCNC(=N)N)NC(=O)[C@H](CCCNC(=N)N)NC(=O)[C@H](CCCNC(=N)N)NC(=O)[C@H](CCCNC(=N)N)NC(=O)[C@H](CCCNC(=N)N)NC(=O)[C@H](CCCNC(=N)N)NC(=O)[C@H](CCCNC(=N)N)NC(C)=O)C(=O)N[C@@H]([C@@H](C)CC)C(=O)N[C@@H](CCC(N)=O)C(=O)N[C@@H](CO)C(=O)NCC(=O)N1)C(=O)N[C@@H](CO)C(=O)NCC(=O)N[C@@H](CC(C)C)C(=O)NCC(N)=O (Ac-RRRRRRRRRPK[S5]IQSG[S5]ISGLG-NH2; staple 12-17),–,–,–,–,–,–,–,EC50 (Leishmania infantum [1]): 2.14 µM; EC50 (THP-1): 0.33 µM; EC50 (Leishmania infantum [2]): 1.95 µM
CCCC[C@H](NC(=O)[C@H](CC(C)C)NC(=O)[C@H](CCCC)NC(=O)[C@H](CO)NC(=O)[C@@H](NC(=O)CNC(=O)[C@@H](NC(=O)[C@H](CO)NC(=O)[C@H](CCC(N)=O)NC(=O)[C@@H](NC(=O)[C@@H](NC(=O)[C@H](CC(C)C)NC(=O)[C@@H]1CCCN1C(C)=O)[C@@H](C)CC)[C@@H](C)CC)C(C)C)[C@@H](C)CC)C(N)=O,1.2 µM,–,–,–,–,–,–,half-life at 100 µM (Proteinase K [3]): 0.375 to 0.383 h; IC50 (Trypanothione reductase [4]; read-out: IC50): 13.5 µM
CC[C@H](C)[C@H](NC(=O)[C@]1(C)CCCC=CCCC[C@](C)(NC(=O)[C@H](CCCCN)NC(=O)[C@@H]2CCCN2C(=O)COCCOCCNC(=S)Nc2ccc(C(=O)O)c(-c3c4ccc(=O)cc-4oc4cc(O)ccc34)c2)C(=O)N[C@@H]([C@@H](C)CC)C(=O)N[C@@H](CCC(N)=O)C(=O)N[C@@H](CO)C(=O)NCC(=O)N1)C(=O)N[C@@H](CO)C(=O)NCC(=O)N[C@@H](CC(C)C)C(=O)NCC(N)=O ({X1-AEEA}-PK[S5]IQSG[S5]ISGLG-NH2; staple 3-8),–,inactive,inactive,–,–,–,–,–
CCCC[C@H](NC(=O)[C@H](CC(C)C)NC(=O)[C@H](CCCC)NC(=O)[C@H](CO)NC(=O)[C@@H](NC(=O)CNC(=O)[C@]1(C)CCCC=CCCC[C@@](C)(NC(=O)[C@H](CC(C)C)NC(=O)[C@@H]2CCCN2C(C)=O)C(=O)N[C@@H]([C@@H](C)CC)C(=O)N[C@@H](CCC(N)=O)C(=O)N[C@@H](CO)C(=O)N1)[C@@H](C)CC)C(N)=O (stereo in doubt; 2b),> 25 µM,–,–,–,–,–,–,IC50 (Trypanothione reductase [4]): Not Active
CCCC[C@@H](NC(=O)[C@H](CC(C)C)NC(=O)[C@@H](CCCC)NC(=O)[C@H](CO)NC(=O)[C@@H](NC(=O)CNC(=O)C1(C)CCCC=CCCC[C@@](C)(NC(=O)[C@@H](NC(=O)[C@H](CC(C)C)NC(=O)[C@@H]2CCCN2C(C)=O)[C@@H](C)CC)C(=O)N[C@@H](CCC(N)=O)C(=O)N[C@@H](CO)C(=O)N[C@@H](C(C)C)C(=O)N1)[C@@H](C)CC)C(N)=O (some centres undefined),6.4 µM,inactive,inactive,144%,140%,169%,168%,half-life at 100 µM (Proteinase K [8]): 3.53 h; Activity [12]: Active
C=CCCC[C@](C)(NC(=O)[C@H](CO)NC(=O)[C@H](CCC(N)=O)NC(=O)[C@@H](NC(=O)[C@](C)(CCCC=C)NC(=O)[C@H](CCCCN)NC(=O)[C@@H]1CCCN1C(C)=O)[C@@H](C)CC)C(=O)NCC(=O)N[C@H](C(=O)N[C@@H](CO)C(=O)N[C@@H](CCCC)C(=O)N[C@@H](CCCCN)C(=O)N[C@@H](CCCC)C(N)=O)[C@@H](C)CC (Ac-PK[S5]IQS[S5]GIS[Nle]K[Nle]-NH2),28.2 µM,inactive,inactive,–,–,–,–,IC50 (Trypanothione reductase [4]): Not Active
CCCC[C@@H](NC(=O)[C@H](CC(C)C)NC(=O)[C@@H](CCCC)NC(=O)[C@H](CO)NC(=O)[C@@H](NC(=O)CNC(=O)[C@@H](NC(=O)[C@H](CO)NC(=O)[C@H](CCC(N)=O)NC(=O)[C@@H](NC(=O)[C@@H](NC(=O)[C@H](CC(C)C)NC(=O)[C@@H]1CCCN1C(C)=O)[C@@H](C)CC)[C@@H](C)CC)C(C)C)[C@@H](C)CC)C(N)=O,–,–,–,56%,59%,18%,2%,–
C=CCCC[C@@](C)(NC(=O)[C@@H](NC(=O)[C@H](CO)NC(=O)[C@H](CCC(N)=O)NC(=O)[C@@](C)(CCCC=C)NC(=O)[C@@H](NC(=O)[C@H](CCCCN)NC(=O)[C@@H]1CCCN1C(C)=O)[C@@H](C)CC)C(C)C)C(=O)N[C@H](C(=O)N[C@@H](CO)C(=O)NCC(=O)N[C@@H](CCCCN)C(=O)NCC(N)=O)[C@@H](C)CC (Ac-PKI[R5]QSV[R5]ISGKG-NH2),12.5 µM,inactive,inactive,145%,125%,175%,184%,–
CCCCCCCCCCCCCCCCOP(=O)([O-])OCC[N+](C)(C)C [MILTEFOSINE],–,–,–,–,–,–,–,EC50 (Leishmania infantum [1]): 2 µM; EC50 (THP-1): 19 µM; EC50 (Leishmania infantum [2]): 47.6 µM
CCCC[C@H](NC(=O)[C@H](CC(C)C)NC(=O)[C@H](CCCC)NC(=O)[C@H](CO)NC(=O)[C@@H](NC(=O)CNC(=O)[C@]1(C)CCCC=CCCC[C@@](C)(NC(=O)[C@H](CC(C)C)NC(=O)[C@@H]2CCCN2C(C)=O)C(=O)N[C@@H]([C@@H](C)CC)C(=O)N[C@@H](CCC(N)=O)C(=O)N[C@@H](CO)C(=O)N1)[C@@H](C)CC)C(N)=O (stereo in doubt; 2a) [listing 1 of 2 here],6.7 µM,–,–,–,–,–,–,half-life at 100 µM (Proteinase K [8]): 6.97 h
CCCC[C@H](NC(=O)[C@H](CC(C)C)NC(=O)[C@H](CCCC)NC(=O)[C@H](CO)NC(=O)[C@@H](NC(=O)CNC(=O)[C@]1(C)CCCC=CCCC[C@@](C)(NC(=O)[C@H](CC(C)C)NC(=O)[C@@H]2CCCN2C(C)=O)C(=O)N[C@@H]([C@@H](C)CC)C(=O)N[C@@H](CCC(N)=O)C(=O)N[C@@H](CO)C(=O)N1)[C@@H](C)CC)C(N)=O (stereo in doubt; 2a) [listing 2 of 2 here],–,inactive,inactive,130%,114%,153%,181%,Activity [12]: Active
CCCCCCCCCCCCCCCCCCOCC(COP(=O)([O-])OCC[N+](C)(C)C)OC (centres undefined) [EDELFOSINE],–,–,–,–,–,–,–,EC50 (Leishmania infantum [1]): 0.6 µM; EC50 (THP-1): 1 µM; EC50 (Leishmania infantum [2]): 9 µM
